Results: patent US9045484B2, “Inhibitors of the BMP signaling pathway” (The Brigham and Women's Hospital, Inc., priority 2008, dated 2015)
Counter-ions that a name gives are not always drawn. Like-named read-outs stand apart in the source and are kept apart here.

What was measured:
[1] = tested on: BMP-induced phosphorylation of SMAD1/5/8; test: BMP4-induced phosphorylation of SMAD1/5/8, cytoblot (cellular ELISA); format: cell-based, murine; settings: Mus musculus
Experimental: Murine pulmonary artery smooth muscle cells were isolated, explanted and cultured as previously described (see […] et al. Am. J. Physiol. Lung Cell Mol. Physiol. 280:[…], 2001) and then grown to confluence in 96 well tissue culture plates. Cells were incubated in serum-free medium for 18 h, and then incubated with recombinant BMP2, BMP4, BMP6, BMP9, GDF5, TGF-β, or Activin A ligands (R&D Systems, Minneapolis, Minn.) at varying concentrations in duplicate for 20 minutes. […] Specificity for BMP-mediated signaling was determined separately using a modification of the cellular ELISA technique assaying for the activation of SMAD2 or SMAD3 via TGF-β, or Activin A. A corresponding IC50 was calculated for the effects of these compounds upon those signaling pathways.

[2] = Plasma pharmacokinetics after single oral administration; format: in vivo; settings: C57B16, mouse, oral 3 mg/kg
Experimental: (§1) The pharmacokinetics of compound 70 was evaluated after a single oral administration (3 mg/kg) in male C57B16 mice on a commercial rodent diet and water ad libitum prior to the study. Compound plasma levels were determined by LC-MS/MS and the pharmacokinetic parameters were determined using WinNonlin software (Pharsight Co., Mountain View, Calif.). Dosing solutions (0.6 mg/mL) were prepared in a vehicle comprising 2% hydropropyl-β-cyclodextrin in phosphate-buffered saline (PBS). Each time point (pre-dose, 15, 30, 60, 120, 240, 360, 480 and 1440 min post-dose) was dosed as N=3. Each blood sample was collected via cardiac puncture after euthanasia with CO2 and placed in chilled tubes containing sodium heparin. Samples were centrifuged at 4° C. at 13,000 rpm for 5 min followed by extracted with acetonitrile and then analyzed.
as §1, with “13.HCl” for “compound 70”

[3] = Plasma pharmacokinetics after single bolus intraperitoneal administration; format: in vivo, C57B16 mice; settings: C57B16, mouse, Table 3, male mice, IP 3 mg/kg; for Tmax: read-out: tmax
Experimental: as §1, with “13.HCl” for “compound 70”, “bolus intraperitoneal” for “oral”, “male and female” for “male”, “(pre-dose, 5, 10,” for “(pre-dose,”, “480,” for “360, 480 and”, “N=3/sex.” for “N=3.”
The pharmacokinetics of 44.HCl and 37.HCl were evaluated after a single bolus intraperitoneal administration (3 mg/kg) in male C57B16 mice on a commercial rodent diet and water ad libitum prior to the study. Compound plasma levels were determined by LC-MS/MS and the pharmacokinetic parameters were determined using WinNonlin software (Pharsight Co., Mountain View, Calif.). Dosing solutions (0.6 mg/mL) were prepared in a vehicle comprising 2% hydropropyl-β-cyclodextrin in phosphate-buffered saline (PBS). Each time point (pre-dose, 5, 10, 15, 30, 60, 120, 240, 480, 1440 min post-dose) was dosed as
N=3/sex. Each blood sample was collected via cardiac puncture after euthanasia with CO2 and placed in chilled tubes containing sodium heparin. Samples were centrifuged at 4° C. at 13,000 rpm for 5 min followed by extracted with acetonitrile and then analyzed.

PDGFR-mediated signaling = test: PDGF-induced AKT phosphorylation, cellular ELISA in PaSMCs; format: cell-based, murine; settings: Mus musculus, PASMC; compounds 10 min, then PDGF 30 min; FIG. 2; read-out: functional IC50, PDGF-induced AKT phosphorylation
Experimental: To test the relative effects of dorsomorphin and structurally-related compounds upon PDGFR-mediated signaling, PDGF-induced AKT phosphorylation was measured by cellular ELISA via the detection of phospho-AKT in PaSMCs treated with compounds for 10 min. followed by PDGF for 30 min.

[4] = Serum iron levels (Ferene S assay) after IP injections; format: in vivo, C57BL/6 mice; settings: two IP injections 10 mg/kg 12 h apart; 24 h after first injection
Experimental: In C57BL/6 mice, two IP injections of dorsomorphin (10 mg/kg) 12 h apart increased serum iron levels, measured by the Ferene S assay (ThermoFisher Scientific, Waltham, Mass.) measured 24 h after first injection by over 60%. (see FIG. 4; n=8 vehicle, n=7 dorsomorphin, P<0.001). Results are expressed as mean±SD.

[5] = Microsomal stability in pooled mouse liver microsomes; format: in vitro ADME; settings: 0.5 mg/mL microsome protein, 1 mM NADPH
Experimental: Test compound (3 μM final concentration) along with 0.5 mg/mL microsome protein and 1 mM NADPH was incubated for 0, 5, 15, 30 and 60 min. Incubation of test compound and microsomes in the absence of NADPH served as a negative control. The samples were quenched with methanol and centrifuged for 20 min at 2500 rpm to precipitate proteins. Sample supernatants were analyzed (N=3) by LC/MS. The ln peak area ratio (compound peak area/internal standard peak area) was plotted against time and the slope of the line determined to give the elimination rate constant [k=(−1)(slope)]. The half life (t1/2 in minutes) and the in vitro intrinsic clearance (CLint in μL/min/mg protein) values were calculated according to the following equations, where V=incubation volume in μL/mg protein: […]

[6] = tested on: IL6-induced hepcidin expression in HepG2 cells; test: IL6-induced hepcidin expression in HepG2 hepatoma cells; format: cell-based, human; settings: pretreatment; data not shown
Experimental: HepG2 cells pretreated with compound 13 (5-625 nM) or vehicle for 30 min. were incubated with IL6 (50 ng/mL) for 1.5 h. Cells were harvested, and hepcidin mRNA and 18S rRNA levels were measured by quantitative RT-PCR. Changes in gene expression were normalized to 18S ribosomal RNA levels using the relative cycle threshold method.

[7] = approximate IC50, cellular ELISA, murine pulmonary artery smooth muscle cells, read-out: IC50 for inhibition of BMP-induced phosphorylation of SMAD1/5/8

Compound: COc1ccc(-c2cnc3c(-c4ccncc4)cnn3c2)cc1 [4-OMe-Ph, 4-Py, H, N, N, 6-(4-Methoxyphenyl)-3-pyridin-4-yl-pyrazolo[1,5-a]pyrimidine]
- IC50 [1, 7]: > 1000 nM

Compound: COc1ccc(-c2ccc3c(-c4ccnc5ccccc45)cnn3c2)cc1 [4-OMe-Ph, 4-quinolinyl, H, CH, N, 4-[6-(4-Methoxyphenyl)pyrazolo[1,5-a]pyridin-3-yl]quinoline]
- IC50 [1, 7]: < 500 nM

Compound: COC(=O)c1cc(-c2ccnc3ccccc23)c2ncc(-c3ccc(OC)cc3)cn12 [4-OMe-Ph, 4-quinolinyl, H, N, CCO2Me, Methyl 3-(4-methoxyphenyl)-8-quinolin-4-yl-pyrrolo[1,2-a]pyrimidine-6-carboxylate]
- IC50 [1, 7]: > 20000 nM

Compound: COc1ccc(-c2cnc3c(-c4ccnc5ccccc45)ccn3c2)cc1 [4-OMe-Ph, 4-quinolinyl, H, N, CH, 4-[3-(4-Methoxyphenyl)pyrrolo[1,2-a]pyrimidin-8-yl]quinoline]
- IC50 [1, 7]: > 20000 nM

Compound: Cl.c1ccc2c(-c3cnn4cc(-c5ccc(N6CCNCC6)cc5)cnc34)ccnc2c1 [13•HCl, 4-[6-(4-piperazin-1-ylphenyl)pyrazolo[1,5-a]pyrimidin-3-yl]quinoline hydrochloride salt]
- AUC(0-inf) ([2]; Table 5, male mice): 919 ng·h/mL
- Cmax ([2]; Table 5, male mice): 690 nM
- Tmax ([2]; Table 5, male mice): 1 h
- half-life ([2]; Table 5, male mice): 1.1 h

Compound: c1ccc2c(-c3cnn4cc(-c5ccc(N6CCNCC6)cc5)ccc34)ccnc2c1 [37•HCl, 4-[6-(4-Piperazin-1-ylphenyl)pyrazolo[1,5-a]pyridin-3-yl]-quinoline]
- AUC(0-inf) [3]: 207 ng·h/mL
- Cmax [3]: 290 nM
- half-life [3]: 2.2 h
- Tmax [3]: < 0.25 h

Compound: COC1(c2ccc(-c3cnc4c(-c5ccnc6ccccc56)cnn4c3)cc2)CCNCC1 [44•HCl, 4-(6-(4-(4-methoxypiperidin-4-yl)phenyl)pyrazolo[1,5-a]pyrimidin-3-yl)quinoline]
- AUC(0-inf) [3]: 583 ng·h/mL
- Cmax [3]: 660 nM
- half-life [3]: 1.4 h
- Tmax [3]: < 0.25 h

Compound: OC1(c2ccc(-c3cnc4c(-c5ccnc6ccccc56)cnn4c3)cc2)CCNCC1 [Compound 70, 4-(4-(3-(quinolin-4-yl)pyrazolo[1,5-a]pyrimidin-6-yl)phenyl)piperidin-4-ol]
- AUC(0-inf) ([2]; Table 4, male mice): 143 ng·h/mL
- Cmax ([2]; Table 4, male mice): 100 nM
- Tmax ([2]; Table 4, male mice): 0.25 h
- half-life ([2]; Table 4, male mice): 1.7 h

Compound: c1cc(-c2cnn3cc(-c4ccc(OCCN5CCCCC5)cc4)cnc23)ccn1 [Dorsomorphin, reference compound]
- IC50 ([1]; FIG. 1, approximate, read-out: functional IC50, BMP4-induced SMAD1/5/8 phosphorylation): ~400 nM
- IC50 (PDGFR-mediated signaling): ~500 nM
- increase of serum iron levels [4]: over 60%
- half-life at 3 μM ([5]; read-out: half-life (t1/2) in mouse liver microsomes): 0.173 h
- microsomal CLint at 3 μM ([5]; read-out: intrinsic clearance (CLint) in mouse liver microsomes): 133 ± 6.6 µL/min/mg

Compound: C[C@@H]1C[C@@H]([C@H](O)CC2CC(=O)NC(=O)C2)C(=O)[C@@H](C)C1 [cycloheximide, reference compound]
- ability of IL6 to induce hepcidin gene expression [6]: did not block the ability of IL6 to induce hepcidin gene expression
